# US9790218B2, “Small molecule activators of calcium-activated chloride channels and methods of use” (The Regents of the University of California, priority 2011, dated 2017)
# How the values were obtained:
# CFTR = biological target: T1, CFTR (Homo sapiens, UniProt P13569); test: CFTR conductance in FRT cells expressing wild type CFTR and YFP indicator; assay type: cell-based; details: 10 μM, 5 min pretreatment; forskolin 10 μM
# T1 construct: expressed in transfected cells; host or cells: FRT cells co-expressing a YFP halide indicator
# Protocol: FIG. 2A-E. Characterization of TMEM16A activators. FIG. 2A. Cytoplasmic calcium measured by Fluo-4 fluorescence. 100 μM ATP (gray line) or 10 μM of indicated TMEM16A activators were added at the arrow. FIG. 2B. Apical membrane current measured in TMEM16A-expressing FRT cells in the presence of a transepithelial chloride gradient and after basolateral membrane permeabilization. […] T16Ainh-A01 (10 μM) added where indicated. […] (right) Concentration-activation data summary (mean±S.E., n=4-6). FIG. 2C. Synergistic effect of Eact and Fact. (left and center) Representative current traces showing synergy. (right) Data summary of low doses of TMEM16A activation (mean±S.E., n=5, * P<0.05). FIG. 2D. Apical membrane current measured in FRT cells transfected with mouse TMEM16A or TMEM16B. FIG. 2E. Effect of Eact and Fact on CFTR and ENaC. (left) FRT cells expressing wild type CFTR and YFP indicator were pretreated for 5 min with 10 μM Eact and Fact. Forskolin (10 μM) added as indicated. (right) HBE cells were pre-treated for 5 min with 10 μM Eact and Fact, with amiloride (10 μM) added as indicated.
# [1] = system: non-CF human tracheal gland (HTG) serous cells; test: Short-circuit current in human tracheal gland (HTG) serous cells; assay type: cell-based; details: T16Ainh-A01 pretreatment
# Protocol: FIG. 5A-B. Airway epithelial chloride secretion. FIG. 5A. Short-circuit current in CF HBE cells. Eact and UTP (100 μM) were added in control (left) and IL-4 (10 ng/ml, 24 h, middle) treated CF HBE cells. (right) Summary of Eact-induced, T16Ainh-A01-sensitive peak current (mean±S.E., n=6-8, * P<0.05). ENaC was inhibited by 10 μM amiloride. FIG. 5B. Eact (10 μM) and UTP (100 μM) induced CaCC Cl^− current measured in primary cultures of non-CF human tracheal gland (HTG) serous cells. (left and gmiddle) TMEM16A, CFTR and ENaC were inhibited by pretreatment with T16Ainh-A01, CFTRinh-172 and amiloride, respectively. Inset: TMEM16A immunoblot in whole cell homogenates of CF HBE and HTG cells. (right) Summary of UTP and Eact-induced peak current in the presence and absence of T16Ainh-A01 (mean±S.E., n=3, * P<0.05). […]
# Snapwell inserts containing TMEM16A-expressing FRT, HBE, CF HBE or HTG cells were mounted in Ussing chambers (Physiologic Instruments, San Diego, Calif.). […] Apical membrane current (for FRT cells) and short-circuit current were measured using an EVC4000 Multi-Channel V/I Clamp (World Precision Instruments, Sarasota, Fla.) and recorded using PowerLab/8sp (AD Instruments, Castle Hill, Australia). […]
# T1 sequence (P13569 whole entry): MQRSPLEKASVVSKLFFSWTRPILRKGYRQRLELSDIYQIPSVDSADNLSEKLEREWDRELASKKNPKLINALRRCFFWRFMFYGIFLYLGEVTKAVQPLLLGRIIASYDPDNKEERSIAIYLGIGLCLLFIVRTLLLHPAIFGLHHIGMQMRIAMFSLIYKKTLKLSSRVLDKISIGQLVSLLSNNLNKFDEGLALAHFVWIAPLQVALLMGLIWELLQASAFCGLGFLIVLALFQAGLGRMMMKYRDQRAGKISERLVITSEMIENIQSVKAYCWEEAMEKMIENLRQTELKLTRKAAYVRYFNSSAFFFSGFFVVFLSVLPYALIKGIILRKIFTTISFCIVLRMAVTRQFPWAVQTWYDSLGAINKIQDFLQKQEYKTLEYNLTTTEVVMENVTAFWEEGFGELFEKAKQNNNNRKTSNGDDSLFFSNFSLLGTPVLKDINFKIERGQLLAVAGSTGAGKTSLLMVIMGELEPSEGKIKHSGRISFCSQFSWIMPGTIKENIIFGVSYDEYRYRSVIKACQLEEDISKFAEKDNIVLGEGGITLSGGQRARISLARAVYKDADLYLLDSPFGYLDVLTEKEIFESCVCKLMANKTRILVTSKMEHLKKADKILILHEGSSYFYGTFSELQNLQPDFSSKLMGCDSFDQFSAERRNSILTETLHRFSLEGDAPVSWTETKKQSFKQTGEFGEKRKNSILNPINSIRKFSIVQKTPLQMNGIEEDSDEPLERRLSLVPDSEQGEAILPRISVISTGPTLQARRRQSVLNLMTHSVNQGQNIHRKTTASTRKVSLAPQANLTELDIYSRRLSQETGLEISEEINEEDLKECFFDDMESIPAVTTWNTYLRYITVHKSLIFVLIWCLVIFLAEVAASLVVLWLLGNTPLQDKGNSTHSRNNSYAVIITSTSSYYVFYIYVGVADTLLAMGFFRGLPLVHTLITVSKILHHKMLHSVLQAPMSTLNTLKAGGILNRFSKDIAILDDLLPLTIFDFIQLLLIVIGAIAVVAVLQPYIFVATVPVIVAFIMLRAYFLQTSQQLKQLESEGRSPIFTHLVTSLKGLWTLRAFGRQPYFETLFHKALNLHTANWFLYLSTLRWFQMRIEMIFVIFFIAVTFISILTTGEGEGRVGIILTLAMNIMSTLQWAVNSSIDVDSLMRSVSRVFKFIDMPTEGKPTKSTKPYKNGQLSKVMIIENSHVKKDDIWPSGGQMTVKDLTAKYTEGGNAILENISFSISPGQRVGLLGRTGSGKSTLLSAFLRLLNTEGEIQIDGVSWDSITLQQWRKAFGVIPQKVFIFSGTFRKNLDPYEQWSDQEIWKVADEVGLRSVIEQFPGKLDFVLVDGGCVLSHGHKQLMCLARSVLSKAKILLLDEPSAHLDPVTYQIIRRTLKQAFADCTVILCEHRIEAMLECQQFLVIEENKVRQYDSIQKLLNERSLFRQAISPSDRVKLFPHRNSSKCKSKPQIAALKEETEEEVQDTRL
SMILES,effect on CFTR conductance (CFTR),effect of pretreatment on UTP- and Eact-induced Cl^− current [1]
"O=C(Nc1ccc(Br)cc1)c1cccc(-n2cnnn2)c1 [Fact, N-(4-bromophenyl)-3-(1H-tetrazol-1-yl)benzamide]",Neither Eact nor Fact affected,
"CCc1c(C)nc(SCC(=O)Nc2nc(-c3ccc(OC)cc3)cs2)[nH]c1=O [T16Ainh-A01, reference compound]",,largely abolished
